# Values quoted from earlier work, collected in US9604977B2, “Bicyclic thiophenylamide compounds” (Hoffmann-La Roche Inc., priority 2012, dated 2017).
Structure (SMILES),glucose uptake in muscle and adipose (ob/ob mice; clamp study in ob/ob mice),hepatic glucose production (ob/ob mice; clamp study in ob/ob mice),body weight and energy consumption (ob/ob mice; ob/ob mice),hepatic steatosis (ob/ob mice; ob/ob mice),atherosclerotic plaques formation (ApoE KO mice),insulin and glucose tolerance (mice under HF diet),plasma triglyceride and free fatty acid (mice under HF diet)
CCc1c(-c2ccccc2)c(-c2ccccc2)nn1-c1ccccc1-c1cccc(OCC(=O)O)c1 [BMS309403],increased glucose uptake in muscle and adipose,reduction of hepatic glucose production,no change in body weight and energy consumption,reduction in hepatic steatosis,decrease in atherosclerotic plaques formation,,
Cc1noc(-c2c(NC(=O)C3=C(C(=O)O)CCCC3)sc3c2CCCC3)n1 [Compound 3],,,,,,no improvement in insulin and glucose tolerance,reduction in plasma triglyceride and free fatty acid
